Experimental data reported in patent US20160130234A1, “PHARMACEUTICAL COMPOSITIONS BASED ON PHOTOCHEMICALLY STABLE SILVER COMPLEXES, CHLOREXIDINE AND CATIONIC SURFACTANTS” (PAVIA FARMACEUTICI S.R.L., priority 2013, published 2016).

Columns and labels:
sepsis = details: burns treated with silver nitrate; decreased from 60%; cited from earlier work
[1] = tested on: Staphylococcus aureus (ATCC-6538) and Pseudomonas aeruginosa (ATCC-15442); assay: quantitative suspension test for bactericidal activity, UNI EN 1272:2009; type: cell-based
Procedure: The bactericidal activity was tested on aqueous solutions of the complex of Example 1, (i.e. where the ligand L coordinated to the silver ion is the 2-Mercapto-5-benzimidazolesulfonic acid sodium salt).
The bactericidal activity tests were carried out according to UNI EN 1272:2009 and UNI EN 13697:2001 standards, which makes reference to chemical disinfectants and antiseptics, by using the following test organism: Staphylococcus aureus (ATCC-6538), as representative of Gram-positive bacteria and Pseudomonas aeruginosa (ATCC-15442), as representative of Gram-negative bacteria.

[2] = tested on: Staphylococcus epidermidis; details: cited from earlier work

Row | Compound | number of deaths that were a result of sepsis (sepsis) [%] | antimicrobial activity after exposure to ambient light ([1]; after exposure to ambient light, reduction of Ag^+ to Ag^∘) | reduction of bacterial count compared with the silver complex ([1]; solution of comparable concentration) | development of resistance by Staphylococcus epidermidis [2]
1 | O=[N+]([O-])[O-].[Ag+] [Silver Nitrate] | 28 | lose the antimicrobial activity | analogously | –
2 | [H]/N=C(\N/C(=N/[H])NCCCCCCNC(=N)NC(=N)Nc1ccc(Cl)cc1)Nc1ccc(Cl)cc1 [chlorhexidine] | – | – | – | no evidence of resistance was observed
3 | polyhexametylene biguanide | – | – | – | no evidence of resistance was observed
